What was measured:
[1] = target: T1, Dihydrofolate reductase (Homo sapiens, UniProt P00374); experiment: Tested for inhibitory activity against dihydrofolate reductase in human
T1 sequence (P00374 whole entry): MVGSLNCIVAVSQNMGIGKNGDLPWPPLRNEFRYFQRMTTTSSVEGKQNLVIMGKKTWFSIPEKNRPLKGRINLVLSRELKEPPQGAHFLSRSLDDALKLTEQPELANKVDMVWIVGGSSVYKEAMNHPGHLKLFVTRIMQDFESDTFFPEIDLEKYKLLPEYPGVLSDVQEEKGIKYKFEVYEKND

[2] = target: T2, Dihydrofolate reductase (Rattus norvegicus, UniProt Q920D2)
T2 sequence (Q920D2 whole entry): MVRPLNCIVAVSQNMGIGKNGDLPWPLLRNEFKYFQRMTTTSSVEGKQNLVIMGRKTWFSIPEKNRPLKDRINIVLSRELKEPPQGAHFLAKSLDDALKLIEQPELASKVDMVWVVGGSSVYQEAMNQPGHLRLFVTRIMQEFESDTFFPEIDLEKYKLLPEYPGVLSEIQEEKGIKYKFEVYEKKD
Description: Inhibition of rat liver dihydrofolate reductase.

[3] = system: CCRF-CEM; experiment: Tested for cell growth inhibition in CCRF-CEM lymphoblasts; type: functional, cell-based; settings: Homo sapiens
[4] = target: Dihydrofolate reductase (Lactobacillus casei, UniProt P00381); experiment: Tested for inhibitory activity against dihydrofolate reductase in Lactobacillus casei; parameters: species or system Lacticaseibacillus casei
[5] = target: T3, Dihydrofolate reductase (Pneumocystis carinii, UniProt P16184); experiment: Tested for inhibitory activity against dihydrofolate reductase in pneumocystis carinii
T3 sequence (P16184 whole entry): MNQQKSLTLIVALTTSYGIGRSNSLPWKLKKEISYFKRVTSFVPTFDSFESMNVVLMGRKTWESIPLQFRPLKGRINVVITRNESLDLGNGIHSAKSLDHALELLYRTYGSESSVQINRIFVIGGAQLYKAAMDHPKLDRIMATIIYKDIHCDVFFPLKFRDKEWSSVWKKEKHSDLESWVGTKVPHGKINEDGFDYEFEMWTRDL

[6] = target: T4, Bifunctional dihydrofolate reductase-thymidylate synthase (Toxoplasma gondii, UniProt Q07422); experiment: Tested for inhibitory activity against dihydrofolate reductase in Toxoplasma gondii
T4 sequence (Q07422 whole entry): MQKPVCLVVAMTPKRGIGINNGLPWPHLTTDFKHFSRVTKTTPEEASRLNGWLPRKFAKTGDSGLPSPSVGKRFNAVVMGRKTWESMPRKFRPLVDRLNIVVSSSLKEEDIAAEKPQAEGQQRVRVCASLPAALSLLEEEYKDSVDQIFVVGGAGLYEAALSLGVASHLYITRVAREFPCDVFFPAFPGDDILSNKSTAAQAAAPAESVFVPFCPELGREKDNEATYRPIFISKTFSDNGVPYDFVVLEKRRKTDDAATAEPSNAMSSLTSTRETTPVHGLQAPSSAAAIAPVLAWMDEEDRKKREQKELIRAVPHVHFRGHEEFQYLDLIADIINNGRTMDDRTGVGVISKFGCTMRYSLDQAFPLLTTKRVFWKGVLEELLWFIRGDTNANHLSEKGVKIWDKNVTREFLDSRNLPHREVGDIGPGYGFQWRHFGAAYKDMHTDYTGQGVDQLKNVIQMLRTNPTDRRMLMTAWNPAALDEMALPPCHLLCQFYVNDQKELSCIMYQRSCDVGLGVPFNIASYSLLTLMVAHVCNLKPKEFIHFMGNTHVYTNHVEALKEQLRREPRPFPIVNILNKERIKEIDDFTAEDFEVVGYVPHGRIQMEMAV

Sequence of Dihydrofolate reductase (Lactobacillus casei, UniProt P00381) (P00381 whole entry): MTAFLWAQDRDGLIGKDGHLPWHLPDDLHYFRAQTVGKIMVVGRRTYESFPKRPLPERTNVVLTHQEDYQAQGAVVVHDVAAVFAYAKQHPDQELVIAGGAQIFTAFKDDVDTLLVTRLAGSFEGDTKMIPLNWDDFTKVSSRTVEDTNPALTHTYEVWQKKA

Row | SMILES | IC50 [1] | IC50 [2] | also measured
1 | COc1ccc(OC)c(Cc2sc3nc(N)nc(N)c3c2C)c1 | 0.73 µM | 0.4 µM | –
2 | COc1ccc(OC)c(-c2sc3nc(N)nc(N)c3c2C)c1 | 0.75 µM | 0.37 µM | –
3 | Nc1nc(N)c2c3c(sc2n1)CCCCC3 | – | 1.3 µM | –
4 | Cc1c(-c2ccccc2)sc2nc(N)nc(N)c12 | – | – | IC50 [3]: 14 µM
5 | COc1cc(Cc2sc3nc(N)nc(N)c3c2C)cc(OC)c1OC | > 10 µM | 51 µM | –
6 | COc1cc(CCc2sc3nc(N)nc(N)c3c2C)cc(OC)c1OC | > 10 µM | 25 µM | –
7 | Nc1nc(N)c2c3c(sc2n1)CN(Cc1ccccc1)CC3 | – | 0.57 µM | IC50 [5]: 5.2 µM; IC50 [6]: 0.85 µM
8 | Cc1c(Cc2ccccc2)sc2nc(N)nc(N)c12 | – | 14 µM | IC50 [3]: 15 µM; IC50 [4]: 1.3 µM
9 | Nc1nc(N)c2c3c(sc2n1)CCCCCC3 | – | – | IC50 [3]: 12 µM
10 | COc1cc(-c2sc3nc(N)nc(N)c3c2C)cc(OC)c1OC | > 10 µM | 1.8 µM | –
11 | Nc1nc(N)c2c3c(sc2n1)CCCCCCCCCC3 | – | 9.3 µM | IC50 [3]: 3.7 µM; IC50 [4]: 12 µM
12 | COc1ccc(OC)c(CCCc2csc3nc(N)nc(N)c23)c1 | – | 26 µM | –
13 | Nc1nc(N)c2c3c(sc2n1)CCCC3 | – | 3.9 µM | –

Further lines, with some results ahead:

Row | IC50 [1] | IC50 [2] | SMILES | also measured
14 | > 10 µM | 5.9 µM | COc1ccc(OC)c(CCc2sc3nc(N)nc(N)c3c2C)c1 | –
15 | – | 4.6 µM | Cc1c(-c2ccc(Cl)c(Cl)c2)sc2nc(N)nc(N)c12 | IC50 [4]: 2 µM
16 | – | > 37 µM | Cc1sc2nc(N)nc(N)c2c1Cc1ccccc1 | IC50 [4]: > 50 µM
17 | – | 3.1 µM | COc1ccc(OC)c(CCc2csc3nc(N)nc(N)c23)c1 | –
18 | – | > 100 µM | Cc1sc2nc(N)nc(N)c2c1-c1ccc(Cl)cc1 | IC50 [4]: > 50 µM

Source: ChEMBL document CHEMBL1126852 (J Med Chem, 1993)
